Data on ten compounds can be found in patent US6017911A, “Pyridonecarboxylic acid derivatives and intermediates for the synthesis thereof” (Dainippon Pharmaceutical Co., Ltd., priority 1996, dated 2000).

The test system of assay [1] is Staphylococcus aureus 50774. The assay can be described thus: In vitro antibacterial activity (MIC), Staphylococcus aureus 50774. The format is cell-based.
In assay [2] the test system is Staphylococcus aureus MS16405. The assay is described as follows: In vitro antibacterial activity (MIC), Staphylococcus aureus MS16405. The class given is cell-based.
For assay [3], the system named is Escherichia coli NIHJ JC-2. The assay can be described thus: In vitro antibacterial activity (MIC), Escherichia coli NIHJ JC-2. The class given is cell-based. Conditions: NIHJJC2, read-out: Minimum inhibitory concentration (MIC).
In assay [4] the test system is Pseudomonas aeruginosa No 12. The assay is described as follows: In vitro antibacterial activity (MIC), Pseudomonas aeruginosa No 12. The class given is cell-based. Conditions: NO12, read-out: Minimum inhibitory concentration (MIC).
In assay [5] the test system is Staphylococcus aureus 50774. The assay can be described thus: Effect on systemic infection in mice. Conditions: 168 h; Staphylococcus aureus 50774 i.p. infection; oral, twice (immediately and 6 h after infection); survival 7 days after infection. The format is in vivo, mice (male Std-ddy strain). The procedure: The effects (ED50; mg/kg) on systemic infection in mice were determined as follows: Male Std-ddy strain mice (weighing about 20 g) were infected with each of the pathogenic bacteria shown in Table 2 by administering 5×10^3 viable cells intraperitoneally to each mouse. Then, a suspension of each test compound in 0.4% carboxymethylcellulose was orally administered twice, i.e., immediately after infection and 6 hours after infection. Seven days after infection, the ED50 value was calculated from the survival rate of each mouse group by probit analysis.
As a reference compound, there was used enoxacin [1-ethyl-6-fluoro-1,4-dihydro-4-oxo-7-(1-piperazinyl-1,8-naphthyridine-3-carboxylic acid; hereinafter abbreviated as ENX] that is an excellent antibacterial agent currently on the market.
The test compounds shown in the following Tables 1 and 2 are identified by the respective numbers of the Examples which will be given later.

Setting [6] is: Staphylococcus aureus 50774, read-out: Minimum inhibitory concentration (MIC).
Where [7] appears, read: Staphylococcus aureus MS16405, read-out: Minimum inhibitory concentration (MIC).
The mark [8] stands for this setting: Staphylococcus aureus, MS16405, read-out: Minimum inhibitory concentration (MIC).

In brackets after ≈: the same amount, converted by molar mass. Where two headings read alike, the source gives them in different places.

One may read the ED50 as the dose at which the effect has come halfway, by size or by number of responders.

Consider `CN[C@H]1CN(c2c(F)c(N)c3c(=O)c(C(=O)O)cn(C4CC4)c3c2OC)[C@@H]2CCO[C@H]12` (relative stereo) [Example 9], for which the MIC in assay [1] (setting [6]) turned out to be 0.025 µg/mL (≈ 0.0578 µM); in assay [2] (setting [7]), 1.56 µg/mL (≈ 3.61 µM); in assay [3], 0.05 µg/mL (≈ 0.116 µM); in assay [4], 1.56 µg/mL (≈ 3.61 µM). Moreover, the ED50 in assay [5] turned out to be 0.415 mg/kg.
Turning to `COc1c(N2C[C@H](N)[C@H]3OCCC[C@H]32)c(F)cc2c(=O)c(C(=O)O)cn(C3CC3)c12` (relative stereo) [Example 10], the MIC in assay [1] (setting [6]) worked out at 0.013 µg/mL (≈ 0.0311 µM); in assay [2] (setting [8]), 0.39 µg/mL (≈ 0.934 µM); in assay [3], 0.1 µg/mL (≈ 0.24 µM); in assay [4] it was 3.13 µg/mL (≈ 7.5 µM). The ED50 in assay [5] was 0.465 mg/kg.
Consider `COc1c(N2C[C@H](N)[C@H]3OCCC[C@H]32)c(F)c(N)c2c(=O)c(C(=O)O)cn(C3CC3)c12` (relative stereo) [Example 12], for which the MIC was 0.013 µg/mL (≈ 0.0301 µM) in assay [1] (setting [6]), 0.39 µg/mL (≈ 0.902 µM) in assay [2] (setting [7]), 0.1 µg/mL (≈ 0.231 µM) in assay [3] and 1.56 µg/mL (≈ 3.61 µM) in assay [4]. The compound also yielded an ED50 in assay [5] of 0.715 mg/kg.
As for `COc1c(N2C[C@@H](N)[C@H]3OCC[C@H]32)c(F)c(N)c2c(=O)c(C(=O)O)cn(C3CC3)c12` (relative stereo) [Example 13], the MIC in assay [1] (setting [6]) was found to be 0.013 µg/mL (≈ 0.0311 µM); in assay [2] (setting [7]), 1.56 µg/mL (≈ 3.73 µM); in assay [3] it was 0.05 µg/mL (≈ 0.119 µM); in assay [4], 0.78 µg/mL (≈ 1.86 µM). The same compound returned an ED50 in assay [5] of 0.778 mg/kg.
For the compound `N[C@H]1CN(c2c(F)cc3c(=O)c(C(=O)O)cn(C4CC4)c3c2OC(F)F)[C@@H]2CCO[C@@H]21` (relative stereo) [Example 14], the MIC turned out to be 0.025 µg/mL (≈ 0.0569 µM) in assay [1] (setting [6]), 1.56 µg/mL (≈ 3.55 µM) in assay [2] (setting [7]), 0.025 µg/mL (≈ 0.0569 µM) in assay [3] and 1.56 µg/mL (≈ 3.55 µM) in assay [4]. Further, the ED50 in assay [5] was no more than 0.78 mg/kg.
Consider `N[C@H]1CN(c2c(F)cc3c(=O)c(C(=O)O)cn(C4CC4)c3c2Cl)[C@@H]2CCO[C@@H]21` (relative stereo) [Example 15], for which the MIC in assay [1] (setting [6]) was 0.025 µg/mL (≈ 0.0613 µM); in assay [2] (setting [7]), 0.78 µg/mL (≈ 1.91 µM); in assay [3] it was 0.013 µg/mL (≈ 0.0319 µM); in assay [4], 0.78 µg/mL (≈ 1.91 µM). In addition, it took a dose of 1.12 mg/kg to reach the 50% effect level in assay [5] (ED50).
In the case of `COc1c(N2C[C@@H](N)[C@H]3OCC[C@H]32)c(F)c(C)c2c(=O)c(C(=O)O)cn(C3CC3)c12` (relative stereo) [Example 16], the MIC in assay [1] (setting [6]) was 0.006 µg/mL (≈ 0.0144 µM); in assay [2] (setting [7]), 1.56 µg/mL (≈ 3.74 µM); in assay [3], 0.1 µg/mL (≈ 0.24 µM); in assay [4], 1.56 µg/mL (≈ 3.74 µM). Moreover, the ED50 in assay [5] is 0.78 mg/kg.
Regarding `N[C@H]1CN(c2c(F)cc3c(=O)c(C(=O)O)cn(C4CC4)c3c2F)[C@@H]2CCO[C@@H]21` (relative stereo) [Example 18], the MIC came out at 0.025 µg/mL (≈ 0.0639 µM) in assay [1] (setting [6]), 1.56 µg/mL (≈ 3.99 µM) in assay [2] (setting [7]), 0.006 µg/mL (≈ 0.0153 µM) in assay [3] and 0.39 µg/mL (≈ 0.996 µM) in assay [4]. This compound displayed an ED50 in assay [5] of 0.928 mg/kg.
In the same order, the values of `COc1c(N2C[C@@H](N)[C@H]3OCCC[C@H]32)c(F)cc2c(=O)c(C(=O)O)cn(C3CC3)c12` (relative stereo) [Example 19] are 0.013 µg/mL (≈ 0.0311 µM), 0.78 µg/mL (≈ 1.87 µM), 0.1 µg/mL (≈ 0.24 µM), 1.56 µg/mL (≈ 3.74 µM) and 0.928 mg/kg.
For the compound `CCn1cc(C(=O)O)c(=O)c2cc(F)c(N3CCNCC3)nc21` [ENX, reference compound], the MIC in assay [1] (Staphylococcus aureus, 50774, read-out: Minimum inhibitory concentration (MIC)) came out at 0.39 µg/mL (≈ 1.22 µM); in assay [2] (setting [8]) it was 100 µg/mL (≈ 312 µM); in assay [3] it was 0.05 µg/mL (≈ 0.156 µM); in assay [4], 0.78 µg/mL (≈ 2.44 µM). For the same compound, the ED50 in assay [5] was determined as 9.89 mg/kg.
